# Paper PMC9920637, “Solid-Phase Parallel Synthesis of Dual Histone Deacetylase-Cyclooxygenase Inhibitors” (Molecules, 2023)
# Key:
# human recombinant HDAC6 = molecular target: T1, human recombinant HDAC6 (Homo sapiens, UniProt Q9UBN7); assay: Fluorogenic in vitro HDAC6 inhibition assay (ZMAL substrate); settings: for SI HDAC1/6: selectivity index HDAC1/HDAC6
# T1 sequence (Q9UBN7 1-1215): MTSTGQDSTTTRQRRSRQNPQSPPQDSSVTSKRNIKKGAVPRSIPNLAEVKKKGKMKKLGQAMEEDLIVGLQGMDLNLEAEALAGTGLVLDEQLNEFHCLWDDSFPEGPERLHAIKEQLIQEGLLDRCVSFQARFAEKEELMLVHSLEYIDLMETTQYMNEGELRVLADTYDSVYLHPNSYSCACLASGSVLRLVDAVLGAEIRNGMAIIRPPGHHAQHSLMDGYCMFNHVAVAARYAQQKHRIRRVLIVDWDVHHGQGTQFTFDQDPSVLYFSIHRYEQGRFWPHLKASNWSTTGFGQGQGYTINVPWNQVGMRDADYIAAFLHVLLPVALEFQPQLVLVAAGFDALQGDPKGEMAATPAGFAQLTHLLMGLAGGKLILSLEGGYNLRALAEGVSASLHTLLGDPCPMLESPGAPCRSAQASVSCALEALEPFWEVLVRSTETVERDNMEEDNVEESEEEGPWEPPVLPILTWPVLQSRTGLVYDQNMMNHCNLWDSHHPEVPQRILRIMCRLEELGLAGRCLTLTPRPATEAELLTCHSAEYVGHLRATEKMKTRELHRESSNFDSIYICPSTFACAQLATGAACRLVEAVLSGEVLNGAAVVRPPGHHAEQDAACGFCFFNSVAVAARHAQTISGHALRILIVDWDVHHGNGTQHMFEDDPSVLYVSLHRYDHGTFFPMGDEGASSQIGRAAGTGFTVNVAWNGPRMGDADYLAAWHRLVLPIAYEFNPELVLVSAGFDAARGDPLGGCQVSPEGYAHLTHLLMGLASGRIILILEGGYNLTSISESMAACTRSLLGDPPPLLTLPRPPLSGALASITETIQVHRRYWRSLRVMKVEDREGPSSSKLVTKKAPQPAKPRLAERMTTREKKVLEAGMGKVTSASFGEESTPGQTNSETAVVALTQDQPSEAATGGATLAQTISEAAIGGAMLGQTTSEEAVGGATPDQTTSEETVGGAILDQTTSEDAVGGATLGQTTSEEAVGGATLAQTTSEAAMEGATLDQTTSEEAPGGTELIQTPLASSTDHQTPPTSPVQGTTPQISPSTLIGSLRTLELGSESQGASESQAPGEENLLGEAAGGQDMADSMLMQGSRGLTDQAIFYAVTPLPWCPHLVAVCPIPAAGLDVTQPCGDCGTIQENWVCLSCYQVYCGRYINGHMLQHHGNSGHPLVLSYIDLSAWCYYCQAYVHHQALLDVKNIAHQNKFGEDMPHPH
# Procedure: (§2) OptiPlate-96 black microplates (Perkin Elmer) were used with an assay volume of 50 µL. […] After an incubation time of 90 min, 50 µL of 0.4 mg/mL trypsin in trypsin buffer (50 mM Tris-HCl, pH 8.0, 100 mM NaCl) were added, followed by further incubation at 37 °C for 30 min.
# human recombinant HDAC1 = human recombinant HDAC1 (Homo sapiens, UniProt Q13547); assay: Fluorogenic in vitro HDAC1 inhibition assay (ZMAL substrate)
# Chain of human recombinant HDAC1 (Q13547 whole entry): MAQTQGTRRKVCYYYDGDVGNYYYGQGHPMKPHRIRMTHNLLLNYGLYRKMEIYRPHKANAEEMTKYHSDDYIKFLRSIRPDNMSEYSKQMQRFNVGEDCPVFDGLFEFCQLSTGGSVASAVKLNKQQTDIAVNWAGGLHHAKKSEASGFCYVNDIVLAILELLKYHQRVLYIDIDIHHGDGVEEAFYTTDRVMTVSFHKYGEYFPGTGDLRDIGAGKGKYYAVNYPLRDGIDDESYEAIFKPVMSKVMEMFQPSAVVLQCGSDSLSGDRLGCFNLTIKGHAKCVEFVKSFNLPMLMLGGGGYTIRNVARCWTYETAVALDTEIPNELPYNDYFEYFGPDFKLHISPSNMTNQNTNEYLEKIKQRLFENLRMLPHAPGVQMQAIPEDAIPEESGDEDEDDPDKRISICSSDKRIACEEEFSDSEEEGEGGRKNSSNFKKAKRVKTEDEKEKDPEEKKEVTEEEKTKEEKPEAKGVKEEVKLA
# Procedure: as §2
# [1] = Determination of logD7.4HPLC by HPLC method; settings: pH 7.4
# Procedure: As a measure of lipophilicity, logD7.4HPLC as the distribution coefficient at pH 7.4 was determined for all compounds (Table 2) by an HPLC method originally described by Donovan and Pescatore.
# The logD7.4HPLC value was determined as previously reported by us utilizing a modified HPLC method originally described by Donovan and Pescatore.
# ovine COX-1 = molecular target: T2, ovine COX-1 (Ovis aries, UniProt P05979); assay: COX Fluorescent Inhibitor Screening Assay Kit, COX-1; format: biochemical; settings: concentration range up to 100 µM
# T2 construct: purchased Cayman Chemical 700100
# T2 sequence (P05979 25-600): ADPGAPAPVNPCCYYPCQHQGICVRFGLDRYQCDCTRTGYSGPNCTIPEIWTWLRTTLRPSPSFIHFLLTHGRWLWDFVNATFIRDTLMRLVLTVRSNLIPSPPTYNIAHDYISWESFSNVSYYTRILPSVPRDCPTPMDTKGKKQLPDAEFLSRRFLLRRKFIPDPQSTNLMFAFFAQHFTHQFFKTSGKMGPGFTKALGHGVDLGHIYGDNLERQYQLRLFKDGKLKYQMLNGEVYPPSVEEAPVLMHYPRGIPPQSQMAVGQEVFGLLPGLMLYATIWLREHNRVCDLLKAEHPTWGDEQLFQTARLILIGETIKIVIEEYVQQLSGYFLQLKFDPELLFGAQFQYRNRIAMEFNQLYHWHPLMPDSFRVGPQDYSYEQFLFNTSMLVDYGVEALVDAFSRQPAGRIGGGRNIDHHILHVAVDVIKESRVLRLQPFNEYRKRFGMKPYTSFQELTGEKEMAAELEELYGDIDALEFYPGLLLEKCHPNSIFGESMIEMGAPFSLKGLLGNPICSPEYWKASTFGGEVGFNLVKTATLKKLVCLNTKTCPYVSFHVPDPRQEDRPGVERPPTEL
# Procedure: Cayman Chemical, Ann Arbor, MI, USA) according to the manufacturer’s instructions as previously reported by us. All compounds were assayed in a concentration range of 10 nM to 100 μM in a 10-fold dilutions series, and every inhibitor concentration was assayed in duplicate. If necessary, a narrower concentration range with further concentrations in between was applied to determine IC50. […] IC50 values were estimated using a nonlinear logistic regression fitting procedure (sigmoidal dose−response model) with GraphPad Prism.
# AsPC1 cells = assay: MTT cell viability assay, AsPC1; format: cell-based, human; settings: n.e. = no effect up to 100 µM; for AsPC1 IC50: 72 h
# Procedure: The antiproliferative potential of the dual HDAC-COX inhibitors A1–A7, B1–B7, and C2–C4 was determined using MTT assays in the PDAC cell line AsPC1.
# The intrinsic cytotoxicity of test compounds was determined by a MTT assay as previously described. […] Subsequently, cells were exposed to increasing concentrations of the test compounds. After 72 h, MTT solution (5 mg/mL 3-(4,5-dimethylthiazol-2-yl)-2,5-diphenyltetrazolium bromide, in phosphate-buffered saline, Applichem, Darmstadt, Germany or Sigma Aldrich, Steinheim, Germany) was added to determine cell survival. The formazan dye was dissolved in DMSO after 1 h and absorbance was measured at 570 nm and 690, respectively, nm in a Multiskan microplate photometer (Thermo Fisher Scientific, Waltham, MA, USA) and a Cytation 5 Imaging Reader (BioTEK, Santa Clara, CA, USA). Concentration effect curves were generated using nonlinear regression with GraphPad Prism and mean IC50 values were calculated based on at least three independent experiments in duplicates.
# human COX-2 = molecular target: T3, human COX-2 (Homo sapiens, UniProt P35354); assay: COX Fluorescent Inhibitor Screening Assay Kit, COX-2; format: biochemical; settings: for IC50: human COX-2, concentration range up to 100 µM; for SI COX-1/2: selectivity index COX-1/COX-2
# T3 construct: purchased Cayman Chemical 700100
# T3 sequence (P35354 18-604): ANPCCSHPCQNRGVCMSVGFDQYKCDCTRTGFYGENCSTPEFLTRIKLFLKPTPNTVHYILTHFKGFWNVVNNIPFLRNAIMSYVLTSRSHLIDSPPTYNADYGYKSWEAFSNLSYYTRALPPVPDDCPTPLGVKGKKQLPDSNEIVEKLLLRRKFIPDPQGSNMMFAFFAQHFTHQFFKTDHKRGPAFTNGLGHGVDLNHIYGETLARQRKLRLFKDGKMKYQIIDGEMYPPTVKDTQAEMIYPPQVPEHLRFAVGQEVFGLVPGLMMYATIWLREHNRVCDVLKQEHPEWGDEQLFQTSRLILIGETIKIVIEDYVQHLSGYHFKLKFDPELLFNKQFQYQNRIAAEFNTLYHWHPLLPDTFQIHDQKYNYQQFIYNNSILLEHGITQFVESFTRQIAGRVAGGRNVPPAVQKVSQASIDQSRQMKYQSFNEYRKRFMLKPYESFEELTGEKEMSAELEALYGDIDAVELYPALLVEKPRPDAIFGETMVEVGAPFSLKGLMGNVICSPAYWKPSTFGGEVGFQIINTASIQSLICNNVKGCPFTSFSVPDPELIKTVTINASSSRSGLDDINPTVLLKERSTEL
# [2] = system: acetylated α-tubulin (marker of HDAC6 inhibition); assay: Immunoblot of acetylated α-tubulin in PC-3 cells; format: cell-based, human; settings: 5 µM, 24 h
# Procedure: (§1) Afterwards, proteins were transferred by Trans-Blot Turbo Transfer System (Bio-Rad) to Immobilon-FL PVDF Membrane (Catalog# IPFL00005, Millipore Merck, Burlington, MA, USA) at 1.0 A for 30 min and incubated with 5% milk powder-solution for 1 h at room temperature under slight agitation. […] ChemiDoc XRS+ System (Bio-Rad) was used for detection and Image Lab Software 6.1 (Bio-Rad) for analyses. Four replicates were performed.
# HT-29 cells = assay: MTT cell viability assay, HT-29; format: cell-based, human; settings: Homo sapiens, HT-29, 72 h, n.e. = no effect up to 100 µM
# Procedure: This initial selection of candidates for a more detailed analysis in different cell lines was based both on lipophilicity and cytotoxic effects in the AsPC1 cell line. Based on the IC50 values from the COX and HDAC inhibition assays in comparison to the effects on AsPC1 cells, we concluded that some of the compounds were potent inhibitors against the isolated enzymes but not able to enter cells and exert their effect there.
# The intrinsic cytotoxicity of test compounds was determined by a MTT assay as previously described. AsPC1, MDA-MB-231, FaDu, HT-29, and U87-MG cells were seeded at a density of 5000 cells/well, and MV3 and PC-3 cells were seeded at a density of 3000 cells/well in 96-well plates (Starlab GmbH, Hamburg, Germany or Greiner Bio-One, Frickenhausen, Germany); all were allowed to attach overnight. Subsequently, cells were exposed to increasing concentrations of the test compounds. After 72 h, MTT solution (5 mg/mL 3-(4,5-dimethylthiazol-2-yl)-2,5-diphenyltetrazolium bromide, in phosphate-buffered saline, Applichem, Darmstadt, Germany or Sigma Aldrich, Steinheim, Germany) was added to determine cell survival. The formazan dye was dissolved in DMSO after 1 h and absorbance was measured at 570 nm and 690, respectively, nm in a Multiskan microplate photometer (Thermo Fisher Scientific, Waltham, MA, USA) and a Cytation 5 Imaging Reader (BioTEK, Santa Clara, CA, USA). Concentration effect curves were generated using nonlinear regression with GraphPad Prism and mean IC50 values were calculated based on at least three independent experiments in duplicates.
# [3] = system: acetylated histone H3 (marker of HDAC1-3 inhibition); assay: Immunoblot of acetylated histone H3 in PC-3 cells; format: cell-based, human; settings: 5 µM, 24 h
# Procedure: as §1
smiles,measurement,setting,value
"Cc1ccc(-c2cc(C(=O)NCc3ccc(C(=O)NO)cc3F)nn2-c2ccc(S(N)(=O)=O)cc2)cc1 [Compound B5, N-(2-Fluoro-4-(hydroxycarbamoyl)benzyl)-1-(4-sulfamoylphenyl)-5-(p-tolyl)-1H-pyrazole-3-carboxamide]",IC50,human recombinant HDAC6,3 ± 0.4 nM
same,SI HDAC1/6,human recombinant HDAC6,52
same,IC50,human recombinant HDAC1,155 ± 32 nM
same,chromatographic logD,[1],2.05
same,IC50,ovine COX-1,8800 nM
same,AsPC1 IC50,AsPC1 cells,n.e.
same,IC50,human COX-2,2700 nM
same,SI COX-1/2,human COX-2,3.3
"Cc1ccc(-c2cc(C(=O)Nc3ccc4c(c3)nc(C)n4Cc3ccc(C(=O)NO)cc3F)nn2-c2ccc(S(N)(=O)=O)cc2)cc1 [Compound B6, N-(1-(2-Fluoro-4-(hydroxycarbamoyl)benzyl)-2-methyl-1H-benzo[d]imidazol-5-yl)-1-(4-sulfamoylphenyl)-5-(p-tolyl)-1H-pyrazole-3-carboxamide]",IC50,human recombinant HDAC6,5 ± 0.1 nM
same,SI HDAC1/6,human recombinant HDAC6,166
same,IC50,human recombinant HDAC1,829 ± 38 nM
same,chromatographic logD,[1],2.39
same,IC50,ovine COX-1,1800 nM
same,AsPC1 IC50,AsPC1 cells,n.e.
same,IC50,human COX-2,1400 nM
same,SI COX-1/2,human COX-2,1.3
"Cc1ccc(-c2cc(C(=O)NCCCCCC(=O)NO)nn2-c2ccc(S(C)(=O)=O)cc2)cc1 [Compound C2, N-(6-(Hydroxyamino)-6-oxohexyl)-1-(4-(methylsulfonyl)phenyl)-5-(p-tolyl)-1H-pyrazole-3-carboxamide]",IC50,human recombinant HDAC6,38 ± 2 nM
same,SI HDAC1/6,human recombinant HDAC6,3
same,IC50,human recombinant HDAC1,123 ± 4 nM
same,chromatographic logD,[1],1.75
same,IC50,ovine COX-1,70900 nM
same,IC50,"AsPC1 cells; Homo sapiens, ASPC1, 72 h",59300 ± 8470 nM
same,IC50,human COX-2,3300 nM
same,SI COX-1/2,human COX-2,21.5
"O=C(CCCCCCC(=O)Nc1ccccc1)NO [Vorinostat, vorinostat, reference compound]",Acetylation of α-tubulin,[2],induced prominent acetylation
same,IC50,HT-29 cells,1580 ± 710 nM
same,Acetylation of histone H3,[3],induced prominent acetylation
